Experimental findings from PubChem BioAssay AID248 (DTP/NCI, 2004) are described below.

Values joined by “and” are separate entries in the source; they are usually repeats but may differ in a detail not shown here. Equal entries are not always repeated. Toxic doses and inconclusive results are not listed.

The subject of this test is L1210 leukemia ip in BDF1 mice, survival T/C. The test can be described thus: NCI In Vivo Anticancer Drug Screen. Data for tumor model L1210 Leukemia (intraperitoneal) in B6D2F1 (BDF1) mice. The following applies: endpoint: mean survival time, higher = longer survival. In short, it runs like this:
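Tumor was transplanted into mice, which were then dosed with test compound or vehicle alone. Survival was recorded for each group, and the treated figure was expressed relative to the control figure.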

Setting [1] is: dose: 100.0 mg/kg/injection, schedule: Q01DX009 (ip), vehicle: Klucel (hydroxypropylcellulose) (HPC).
Where [2] appears, read: dose: 200.0 mg/kg/injection, schedule: Q01DX009 (ip), vehicle: Klucel (hydroxypropylcellulose) (HPC).
Setting [3] is: dose: 400.0 mg/kg/injection, schedule: Q01DX009 (ip), vehicle: Klucel (hydroxypropylcellulose) (HPC).
[4] abbreviates: dose: 100.0 mg/kg/injection, schedule: Q04DX003 (ip), vehicle: Klucel (hydroxypropylcellulose) (HPC).
The mark [5] stands for this setting: dose: 200.0 mg/kg/injection, schedule: Q04DX003 (ip), vehicle: Klucel (hydroxypropylcellulose) (HPC).
Setting [6] is: dose: 400.0 mg/kg/injection, schedule: Q04DX003 (ip), vehicle: Klucel (hydroxypropylcellulose) (HPC).
The mark [7] stands for this setting: dose: 50.0 mg/kg/injection, schedule: Q01DX001 (ip), vehicle: carboxymethylcellulose (CMC).
Setting [8] is: dose: 100.0 mg/kg/injection, schedule: Q01DX001 (ip), vehicle: carboxymethylcellulose (CMC).
The mark [9] stands for this setting: dose: 200.0 mg/kg/injection, schedule: Q01DX001 (ip), vehicle: carboxymethylcellulose (CMC).
[10] abbreviates: dose: 100.0 mg/kg/injection, schedule: Q01DX001 (ip), vehicle: saline.
Where [11] appears, read: dose: 200.0 mg/kg/injection, schedule: Q01DX001 (ip), vehicle: saline.
[12] abbreviates: dose: 400.0 mg/kg/injection, schedule: Q01DX001 (ip), vehicle: saline.
The mark [13] stands for this setting: dose: 400.0 mg/kg/injection, schedule: Q01DX001 (ip), vehicle: carboxymethylcellulose (CMC).
Setting [14] is: dose: 100.0 mg/kg/injection, schedule: Q04DX003 (ip), vehicle: saline with Tween-80.
Where [15] appears, read: dose: 200.0 mg/kg/injection, schedule: Q04DX003 (ip), vehicle: saline with Tween-80.
[16] abbreviates: dose: 100.0 mg/kg/injection, schedule: Q01DX001 (ip), vehicle: Klucel (hydroxypropylcellulose) (HPC).
[17] abbreviates: dose: 200.0 mg/kg/injection, schedule: Q01DX001 (ip), vehicle: Klucel (hydroxypropylcellulose) (HPC).
[18] abbreviates: dose: 400.0 mg/kg/injection, schedule: Q01DX001 (ip), vehicle: Klucel (hydroxypropylcellulose) (HPC).

For `O=C(Nc1ccc(NC(=O)c2ccc(C3=NCCCN3)cc2)cc1)c1ccc(C2=NCCCN2)cc1`, the T/C by setting is: (dose: 0.93 mg/kg/injection, schedule: Q01DX Z (ip), vehicle: carboxymethylcellulose (CMC)) 106 % of control; (dose: 1.87 mg/kg/injection, schedule: Q01DX Z (ip), vehicle: carboxymethylcellulose (CMC)) 100 % of control; (dose: 3.75 mg/kg/injection, schedule: Q01DX Z (ip), vehicle: carboxymethylcellulose (CMC)) 108 % of control and 118 % of control; (dose: 7.5 mg/kg/injection, schedule: Q01DX Z (ip), vehicle: carboxymethylcellulose (CMC)) 166 % of control and 191 % of control; (dose: 15.0 mg/kg/injection, schedule: Q01DX Z (ip), vehicle: carboxymethylcellulose (CMC)) 200 % of control and 204 % of control; (dose: 30.0 mg/kg/injection, schedule: Q01DX Z (ip), vehicle: carboxymethylcellulose (CMC)) 101 % of control. Also, the T/C is, setting by setting: (dose: 37.5 mg/kg/injection, schedule: Q01DX Z (oral), vehicle: carboxymethylcellulose (CMC)) 101 % of control; (dose: 75.0 mg/kg/injection, schedule: Q01DX Z (oral), vehicle: carboxymethylcellulose (CMC)) 110 % of control; (dose: 150.0 mg/kg/injection, schedule: Q01DX Z (oral), vehicle: carboxymethylcellulose (CMC)) 101 % of control; (dose: 300.0 mg/kg/injection, schedule: Q01DX Z (oral), vehicle: carboxymethylcellulose (CMC)) 106 % of control.
As for `COc1ccccc1NC(=O)NC1CCCCC1`, the T/C under setting [1] was 100 % of control, the T/C under setting [2] is 100 % of control and the T/C under setting [3] was 102 % of control.
`COc1ccc(CO)cc1OC`: the T/C under setting [1] is 101 % of control; the T/C under setting [4] is 97 % of control; the T/C under setting [2] is 113 % of control; the T/C under setting [5] was 94 % of control; the T/C under setting [3] was 97 % of control; the T/C under setting [6] is 94 % of control.
In the case of `CC(C)=CCC/C(C)=C\C=N\NC(N)=S`, the T/C reads like this: under setting [7], 96 % of control; under setting [8], 104 % of control; under setting [9], 104 % of control.
Take `NCC1OC(OC2C(N)CC(N)C(O)C2OC2OC(CO)C(O)C2O)C(N)C(O)C1O` (centres undefined): the T/C reads like this: (dose: 75.0 mg/kg/injection, schedule: Q01DX001 (ip), vehicle: saline) 92 % of control; (dose: 75.0 mg/kg/injection, schedule: Q01DX009 (ip), vehicle: saline) 98 % of control; under setting [10], 100 % of control; (dose: 100.0 mg/kg/injection, schedule: Q04DX003 (ip), vehicle: saline) 100 % of control; (dose: 150.0 mg/kg/injection, schedule: Q01DX001 (ip), vehicle: saline) 97 % of control; (dose: 150.0 mg/kg/injection, schedule: Q01DX009 (ip), vehicle: saline) 96 % of control. Besides, the T/C runs as follows: under setting [11], 100 % of control; (dose: 200.0 mg/kg/injection, schedule: Q04DX003 (ip), vehicle: saline) 95 % of control; (dose: 300.0 mg/kg/injection, schedule: Q01DX001 (ip), vehicle: saline) 93 % of control; (dose: 300.0 mg/kg/injection, schedule: Q01DX009 (ip), vehicle: saline) 98 % of control; under setting [12], 100 % of control; (dose: 400.0 mg/kg/injection, schedule: Q04DX003 (ip), vehicle: saline) 95 % of control.
For the molecule `C=CCOc1ccc2c(cc1=O)C(NC(C)=O)CCc1cc(OC)c(OC)c(OC)c1-2` (centres undefined), the T/C is, setting by setting: under setting [8], 114 % of control; under setting [9], 120 % of control; under setting [13], 117 % of control.
For the molecule `CCCN(CCC)CCC#N`, the T/C is 100 % of control (dose: 59.0 mg/kg/injection, schedule: Q01DX009 (ip), vehicle: saline with Tween-80); 93 % of control under setting [14]; 105 % of control (dose: 118.0 mg/kg/injection, schedule: Q01DX009 (ip), vehicle: saline with Tween-80); 93 % of control under setting [15].
For the molecule `OCCC(c1ccccc1)(c1ccccc1)c1ccccc1`, the T/C is 98 % of control (dose: 6.25 mg/kg/injection, schedule: Q04DX003 (ip), vehicle: saline with Tween-80); 100 % of control (dose: 12.5 mg/kg/injection, schedule: Q04DX003 (ip), vehicle: saline with Tween-80); 89 % of control and 91 % of control (dose: 25.0 mg/kg/injection, schedule: Q04DX003 (ip), vehicle: saline with Tween-80); 90 % of control under setting [14].
Take `Cc1ccc(S(=O)(=O)N(CCCc2c(C)nc(N)[nH]c2=O)c2ccccc2)cc1`: the T/C is, setting by setting: (dose: 50.0 mg/kg/injection, schedule: Q01DX009 (ip), vehicle: Klucel (hydroxypropylcellulose) (HPC)) 102 % of control; under setting [1], 91 % of control; under setting [2], 95 % of control.
Consider `CC(C)C(NC(=O)C1CSC(C)(C)N1C=O)C(N)=O` (centres undefined), for which the T/C runs as follows: under setting [14], 101 % of control; under setting [15], 98 % of control; (dose: 400.0 mg/kg/injection, schedule: Q04DX003 (ip), vehicle: saline with Tween-80) 101 % of control.
Regarding `NC(=O)N/N=C1/CCCC(C(=O)O)C1` (centres undefined), the T/C is, setting by setting: under setting [16], 105 % of control; under setting [4], 102 % of control; under setting [17], 109 % of control; under setting [5], 98 % of control; under setting [18], 103 % of control; under setting [6], 100 % of control.
For `CC(=O)Oc1cc(NC(=O)c2ccccc2)ccc1NC(=O)c1ccccc1`, the T/C under setting [16] was 93 % of control; the T/C under setting [1] was 89 % of control; the T/C under setting [17] was 92 % of control; the T/C under setting [2] was 90 % of control; the T/C under setting [18] is 104 % of control; the T/C under setting [3] was 100 % of control.
With `COc1ccc(/C=N/NC(=S)Nc2cccc3cccnc23)cc1OC`, the T/C under setting [10] is 100 % of control, the T/C under setting [11] was 94 % of control and the T/C under setting [12] is 86 % of control.
With `c1ccc(CCNCc2ccc(CNCCc3ccccc3)cc2)cc1`, the T/C by setting is: under setting [14], 93 % of control; under setting [15], 90 % of control.
Consider `COc1ccc(OC)c(C(=O)CCC(=O)O)c1`, for which the T/C under setting [7] was 94 % of control, the T/C under setting [8] was 110 % of control, the T/C under setting [9] is 100 % of control and the T/C under setting [13] was 107 % of control.
In the case of `CCOC(=O)c1c(N)sc(C)c1C`, the T/C is, setting by setting: under setting [4], 102 % of control; under setting [5], 94 % of control; under setting [6], 97 % of control.
In the case of `NC(=O)Oc1c(Cl)cc(Cl)c(Cl)c1[N+](=O)[O-]`, the T/C is 97 % of control (dose: 25.0 mg/kg/injection, schedule: Q04DX002 (ip), vehicle: Klucel (hydroxypropylcellulose) (HPC)); 104 % of control (dose: 50.0 mg/kg/injection, schedule: Q04DX002 (ip), vehicle: Klucel (hydroxypropylcellulose) (HPC)); 97 % of control (dose: 100.0 mg/kg/injection, schedule: Q04DX002 (ip), vehicle: Klucel (hydroxypropylcellulose) (HPC)).
For `O=C(O)/C=C/C(=O)NC1CCCCC1`, the T/C was 94 % of control (dose: 100.0 mg/kg/injection, schedule: Q01DX009 (ip), vehicle: saline with Tween-80); 96 % of control (dose: 200.0 mg/kg/injection, schedule: Q01DX009 (ip), vehicle: saline with Tween-80); 98 % of control (dose: 400.0 mg/kg/injection, schedule: Q01DX009 (ip), vehicle: saline with Tween-80).
On to `CC(=O)OCC1OC(N2C(=O)/C(=C(/C)c3ccccn3)SC2=S)C(OC(C)=O)C(OC(C)=O)C1OC(C)=O` (centres undefined), for which the T/C reads like this: (dose: 25.0 mg/kg/injection, schedule: Q01DX005 (ip), vehicle: other) 92 % of control; (dose: 50.0 mg/kg/injection, schedule: Q01DX005 (ip), vehicle: other) 97 % of control; (dose: 100.0 mg/kg/injection, schedule: Q01DX005 (ip), vehicle: other) 94 % of control; (dose: 200.0 mg/kg/injection, schedule: Q01DX005 (ip), vehicle: other) 96 % of control; (dose: 400.0 mg/kg/injection, schedule: Q01DX005 (ip), vehicle: other) 96 % of control.
`COc1ccc(C)cc1NC(=O)Nc1cc(C(F)(F)F)ccc1Cl`: the T/C was 88 % of control under setting [1], 95 % of control under setting [2] and 90 % of control under setting [3].
